Calls of active or inactive are those of the source. No cut-off for these calls is given here.
Assays:
[1] = target: T1, A disintegrin and metalloproteinase with thrombospondin motifs 5 (Homo sapiens, UniProt Q9UNA0); test: Inhibition of recombinant aggrecanase 2
T1 sequence (Q9UNA0 whole entry): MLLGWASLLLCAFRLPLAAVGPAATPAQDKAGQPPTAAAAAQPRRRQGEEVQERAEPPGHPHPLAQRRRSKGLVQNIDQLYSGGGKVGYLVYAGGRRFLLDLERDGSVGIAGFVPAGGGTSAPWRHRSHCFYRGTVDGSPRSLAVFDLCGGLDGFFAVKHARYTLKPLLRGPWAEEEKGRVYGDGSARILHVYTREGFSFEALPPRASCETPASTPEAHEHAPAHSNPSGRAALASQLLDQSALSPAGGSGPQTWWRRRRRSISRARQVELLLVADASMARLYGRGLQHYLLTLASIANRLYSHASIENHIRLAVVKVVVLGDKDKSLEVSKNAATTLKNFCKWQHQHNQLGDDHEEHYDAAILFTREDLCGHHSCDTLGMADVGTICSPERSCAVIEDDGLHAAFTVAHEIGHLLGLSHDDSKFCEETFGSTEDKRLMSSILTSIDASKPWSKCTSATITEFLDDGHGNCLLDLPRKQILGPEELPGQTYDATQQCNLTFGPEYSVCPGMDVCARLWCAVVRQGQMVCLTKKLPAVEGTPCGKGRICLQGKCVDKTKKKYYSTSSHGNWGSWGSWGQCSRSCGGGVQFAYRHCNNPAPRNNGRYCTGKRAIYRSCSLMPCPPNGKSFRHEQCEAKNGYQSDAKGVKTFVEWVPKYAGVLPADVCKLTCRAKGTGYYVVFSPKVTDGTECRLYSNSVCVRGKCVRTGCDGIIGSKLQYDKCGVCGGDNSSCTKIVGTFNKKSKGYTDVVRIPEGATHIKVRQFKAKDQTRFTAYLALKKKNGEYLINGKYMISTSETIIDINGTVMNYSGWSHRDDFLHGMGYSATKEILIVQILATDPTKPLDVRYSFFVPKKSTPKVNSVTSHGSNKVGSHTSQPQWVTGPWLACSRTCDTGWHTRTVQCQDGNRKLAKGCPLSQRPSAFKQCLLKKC

[2] = target: Disintegrin and metalloproteinase domain-containing protein 17 (Homo sapiens) (UniProt P78536); test: Inhibition of TACE at 10 uM
Disintegrin and metalloproteinase domain-containing protein 17 (Homo sapiens), sequence (P78536 whole entry, the tested form may be a part): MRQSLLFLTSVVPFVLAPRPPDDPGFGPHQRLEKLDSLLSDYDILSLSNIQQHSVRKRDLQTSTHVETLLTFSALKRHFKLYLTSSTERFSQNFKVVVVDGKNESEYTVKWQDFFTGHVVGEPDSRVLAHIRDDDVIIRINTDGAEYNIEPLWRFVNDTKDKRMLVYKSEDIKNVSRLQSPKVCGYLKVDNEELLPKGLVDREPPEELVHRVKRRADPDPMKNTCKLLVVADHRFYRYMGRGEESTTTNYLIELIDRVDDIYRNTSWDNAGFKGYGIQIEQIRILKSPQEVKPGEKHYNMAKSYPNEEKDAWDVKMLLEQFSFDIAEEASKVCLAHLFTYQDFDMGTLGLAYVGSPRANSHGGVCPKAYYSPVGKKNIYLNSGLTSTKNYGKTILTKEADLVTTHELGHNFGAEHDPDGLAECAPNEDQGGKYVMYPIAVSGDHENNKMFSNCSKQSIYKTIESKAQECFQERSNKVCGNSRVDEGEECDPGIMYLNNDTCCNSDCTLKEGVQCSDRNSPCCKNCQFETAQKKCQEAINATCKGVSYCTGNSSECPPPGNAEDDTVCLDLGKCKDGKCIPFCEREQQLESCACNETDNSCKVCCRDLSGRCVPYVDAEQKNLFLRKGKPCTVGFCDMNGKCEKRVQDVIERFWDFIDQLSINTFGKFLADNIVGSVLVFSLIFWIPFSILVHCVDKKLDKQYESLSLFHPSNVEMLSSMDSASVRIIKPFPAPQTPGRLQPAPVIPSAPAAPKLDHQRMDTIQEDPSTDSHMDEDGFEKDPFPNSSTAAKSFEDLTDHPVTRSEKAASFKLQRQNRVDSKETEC

[3] = target: T2, Interstitial collagenase (Homo sapiens) (UniProt P03956); test: Inhibition of MMP1 at 10 uM
T2 sequence (whole entry): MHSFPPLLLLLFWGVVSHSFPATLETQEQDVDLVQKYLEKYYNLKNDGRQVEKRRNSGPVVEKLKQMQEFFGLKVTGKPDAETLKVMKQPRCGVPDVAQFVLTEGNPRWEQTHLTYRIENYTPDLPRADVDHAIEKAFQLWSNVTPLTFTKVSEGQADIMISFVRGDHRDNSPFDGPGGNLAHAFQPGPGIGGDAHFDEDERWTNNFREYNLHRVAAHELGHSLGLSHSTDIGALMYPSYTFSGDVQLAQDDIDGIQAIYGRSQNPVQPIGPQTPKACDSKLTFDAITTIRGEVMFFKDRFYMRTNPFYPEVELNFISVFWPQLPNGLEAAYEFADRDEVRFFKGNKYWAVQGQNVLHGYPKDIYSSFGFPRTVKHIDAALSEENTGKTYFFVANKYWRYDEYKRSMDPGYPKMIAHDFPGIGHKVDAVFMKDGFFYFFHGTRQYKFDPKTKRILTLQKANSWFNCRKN

[4] = target: T3, A disintegrin and metalloproteinase with thrombospondin motifs 5 (Homo sapiens) (UniProt Q9UNA0); test: Inhibition of recombinant aggrecanase 2 at 10 uM
T3 sequence (whole entry): T1 sequence (Q9UNA0 whole entry)

IC50 [1] [nM] | Activity [2] | Activity [3] | inhibition [4] [%] | SMILES
1100 |  |  |  | O=C1CCCN1CCN([C@]1(C(=O)O)C[C@H]1c1ccccc1)S(=O)(=O)c1ccc(-c2ccc(Cl)cc2)nc1
7300 |  |  |  | O=C(O)[C@@H](Cc1ccccc1)N(CCc1ccccc1)S(=O)(=O)c1ccc(-c2ccc(Cl)cc2)cc1
73 | inactive | inactive |  | COC(=O)c1cn(CCN([C@]2(C(=O)O)C[C@H]2c2ccccc2)S(=O)(=O)c2ccc(-c3ccc(Cl)cc3)cc2)cn1
180 | inactive | inactive |  | O=C(O)[C@@]1(N(CCn2cncn2)S(=O)(=O)c2ccc(-c3ccc(Cl)cc3)cc2)C[C@H]1c1ccccc1
 |  |  | 30 | O=C(O)[C@@H](Cc1ccccc1)N(Cc1ccccc1)S(=O)(=O)c1ccc(-c2ccc(Cl)cc2)cc1
71 | inactive | inactive |  | O=C(O)[C@@]1(N(CCn2cnc3ncncc32)S(=O)(=O)c2ccc(-c3ccc(Cl)cc3)cc2)C[C@H]1c1ccccc1
270 | inactive | inactive |  | O=C(O)[C@@]1(N(CCn2cnnn2)S(=O)(=O)c2ccc(-c3ccc(Cl)cc3)cc2)C[C@H]1c1ccccc1
270 | inactive | inactive |  | O=C(O)[C@@]1(N(CCn2ccnn2)S(=O)(=O)c2ccc(-c3ccc(Cl)cc3)cc2)C[C@H]1c1ccccc1
 |  |  | 0.1 | C[C@@](Cc1ccccc1)(C(=O)O)N(CCN1CCCC1=O)S(=O)(=O)c1ccc(-c2ccc(Cl)cc2)cc1
750 | inactive | inactive |  | O=C(O)[C@@]1(N(CCc2ccncc2)S(=O)(=O)c2ccc(-c3ccc(Cl)cc3)cc2)C[C@H]1c1ccccc1
820 | inactive | inactive |  | O=C(O)[C@@]1(N(CCc2ccccn2)S(=O)(=O)c2ccc(-c3ccc(Cl)cc3)cc2)C[C@H]1c1ccccc1
260 | inactive | inactive |  | O=C(O)[C@@]1(N(CCn2nccn2)S(=O)(=O)c2ccc(-c3ccc(Cl)cc3)cc2)C[C@H]1c1ccccc1
 |  |  | 2.9 | COCC#Cc1ccc(S(=O)(=O)N(CCN2CCCC2=O)[C@]2(C(=O)O)C[C@H]2c2ccccc2)cc1
190 | inactive | inactive |  | O=C(O)[C@@]1(N(CCn2cnnc2)S(=O)(=O)c2ccc(-c3ccc(Cl)cc3)cc2)C[C@H]1c1ccccc1
4500 |  |  |  | CC(=O)Nc1ccc(-c2ccc(S(=O)(=O)N(CCN3CCCC3=O)[C@]3(C(=O)O)C[C@H]3c3ccccc3)cc2)cc1
220 | inactive | inactive |  | O=C1OCCN1CCN([C@]1(C(=O)O)C[C@H]1c1ccccc1)S(=O)(=O)c1ccc(-c2ccc(Cl)cc2)cc1
6600 |  |  |  | CN(C)c1ccc(-c2ccc(S(=O)(=O)N(CCN3CCCC3=O)[C@]3(C(=O)O)C[C@H]3c3ccccc3)cc2)cc1
 |  |  | -1.5 | O=C1CCCN1CCN([C@]1(C(=O)O)C[C@H]1c1ccccc1)S(=O)(=O)c1ccc(C#CCO)cc1

IC50 [1] [nM] | Activity [2] | Activity [3] | inhibition [4] [%] | SMILES
310 | inactive | inactive |  | O=C1CCC(=O)N1CCN([C@]1(C(=O)O)C[C@H]1c1ccccc1)S(=O)(=O)c1ccc(-c2ccc(Cl)cc2)cc1
1600 |  |  |  | O=C(O)[C@@H](Cc1ccccc1)N(CCN1CCCC1=O)S(=O)(=O)c1ccc(-c2ccc(Cl)cc2)cc1
3200 |  |  |  | O=C(O)[C@@H](Cc1ccccc1)NS(=O)(=O)c1ccc(-c2ccc(Cl)cc2)cc1
210 | inactive | inactive |  | O=C1CCCCN1CCN([C@]1(C(=O)O)C[C@H]1c1ccccc1)S(=O)(=O)c1ccc(-c2ccc(Cl)cc2)cc1
170 | inactive | inactive |  | O=C(O)[C@@]1(N(CCn2cnc3cncnc32)S(=O)(=O)c2ccc(-c3ccc(Cl)cc3)cc2)C[C@H]1c1ccccc1
 |  |  | -0.12 | CN([C@@H](Cc1ccccc1)C(=O)O)S(=O)(=O)c1ccc(-c2ccc(Cl)cc2)cc1
78 | inactive | inactive |  | COc1cccn(CCN([C@]2(C(=O)O)C[C@H]2c2ccccc2)S(=O)(=O)c2ccc(-c3ccc(Cl)cc3)cc2)c1=O
8000 |  |  |  | CN([C@H](Cc1ccccc1)C(=O)O)S(=O)(=O)c1ccc(-c2ccc(Cl)cc2)cc1
 |  |  | 22 | O=C(O)[C@@H](Cc1ccccc1)N(CC1CCCCC1)S(=O)(=O)c1ccc(-c2ccc(Cl)cc2)cc1
880 |  |  |  | O=C1CCCN1CCN([C@]1(C(=O)O)C[C@H]1c1ccccc1)S(=O)(=O)N1CC=C(c2ccc(Cl)cc2)CC1
290 | inactive | inactive |  | O=C(O)[C@@]1(N(CCc2cccnc2)S(=O)(=O)c2ccc(-c3ccc(Cl)cc3)cc2)C[C@H]1c1ccccc1
 |  |  | 18 | O=C1CCCN1CCN([C@]1(C(=O)O)C[C@H]1c1ccccc1)S(=O)(=O)c1ccc(-c2ccncc2)cc1
320 | inactive | inactive |  | O=C(O)[C@@]1(N(CCn2ccnc2)S(=O)(=O)c2ccc(-c3ccc(Cl)cc3)cc2)C[C@H]1c1ccccc1
200 | inactive | inactive |  | O=C1CCCN1CCN([C@]1(C(=O)O)C[C@H]1c1ccccc1)S(=O)(=O)c1ccc(-c2ccc(Cl)cc2)cc1
230 | inactive | inactive |  | COC(=O)c1cncn1CCN([C@]1(C(=O)O)C[C@H]1c1ccccc1)S(=O)(=O)c1ccc(-c2ccc(Cl)cc2)cc1
180 | inactive | inactive |  | O=C1OCCCN1CCN([C@]1(C(=O)O)C[C@H]1c1ccccc1)S(=O)(=O)c1ccc(-c2ccc(Cl)cc2)cc1
 |  |  | 46 | O=C(O)[C@@H](Cc1ccccc1)N(CC1CC1)S(=O)(=O)c1ccc(-c2ccc(Cl)cc2)cc1
